Series [1] deals with cGAS-STING-Type I IFN pathway. Nature of the series: Inhibition of DNA/lipofectamine-induced IFN-I response in THP 1 dual-KI-hSTING WT(R232) reporter cells. The series is classed as cell-based, human. Particulars: DNA/lipofectamine complex challenging, ISRE induced luminescence. The text has this: (§1) FIGS. 18A-18F: Chelating metal ions to inhibit cGAS-STING-Type I IFN pathway. (FIG. 18A) Molecular structure of representative chelators that could inhibit cGAS-STING-Type I IFN pathway. (FIGS. 18B-18C) Dose-inhibition curves of the IFN-I response (FIG. 18B) and NF-kB inflammation response (FIG. 18C) by the indicated compounds in DNA/lipofectamine 2000 (ThermoFisher, 11668027) treated THP 1 dual-KI-hSTING^WT(R232) reporter cells (Invivogen, thpd-r232). (FIG. 18D) Cellular viability of FIGS. 18B-18C. (FIG. 18E) Dose-inhibition curves of the IFN-I response by the indicated compounds in DNA/lipofectamine 2000 (ThermoFisher, 11668027) treated THP 1-ISG hSTING^HAQ reporter cells (Invivogen, thp-isg). […]
(§2) Given the interesting function of metal ions on modulating innate immune response in our finding, we further evaluated whether chelating metal ions could inhibit the according innate immune pathways, which may be used to treat autoimmune diseases, such as Systemic lupus erythematosus, Aicardi-Goutieres syndrome, Acute pancreatitis Age-dependent macular degeneration, Alcoholic liver disease, Liver fibrosis, Metastasis, Myocardial infarction, Nonalcoholic steatohepatitis (NASH), Parkinson's disease, Polyarthritis/fetal and neonatal anemia, Sepsis, inflammatory bowel disease, multiple sclerosis, etc. […] By a ISRE induced luminescence, we could read the degree of inhibition. […]

For series [2], the system named is THP 1 dual-KI-hSTING^WT(R232) reporter cells. The series can be described thus: Cellular viability of chelator-treated THP 1 dual-KI-hSTING WT(R232) reporter cells. The series is classed as cell-based, human.
Excerpt: as §1, §2

A further series deals with CT26 colon cancer cells. Nature of the series: CT26 tumor model, intratumoral cdAMP(ps)2 formulations. The series is classed as in vivo, Balb/c mice. Here is the method: When tumor size reach ˜60 mm^3, 2 doses of 25 ug/dose cdAMP(ps)2 were administrated intra-tumorally on days 10 and 15. To evaluate antigen-specific immune responses, PBMCs were collected for tetramer staining on day 17 and ELISPOT analysis with AH1 antigen peptides on day 22. […] Although CDN-Zn seemed to better inhibit tumor growth, compared with CDN and CDNs@CaP/PEI-PEG, there was no statistical difference among them. For the survival of mice after treatment, median survival time for untreated, CDN, CDN-Zn and CDNs@CaP/PEI-PEG group was 23 days, 42 days, 64 days and unreached, respectively (FIG. 4B).
All animals were cared for following federal, state, and local guidelines. All work performed on animals was in accordance with and approved by the University Committee on Use and Care of Animals (UCUCA) at University of Michigan, Ann Arbor. Female Balb/c mice of age 6-8 weeks (Jackson Laboratories) were inoculated with 1×10^5 CT26 colon cancer cells. When tumor size achieved ˜100 mm^3, 2 doses of 25 ug cdAMP(ps)2 in different formulations were administrated via intra-tumoral route on day 10 and day 15. Tumor size and survival were monitored every 2 or 3 days. Tumor size was calculated based on equation: volume=length×width^2×0.5. Animals were euthanized when the tumor reached 1.5 cm in diameter or when animals became moribund with severe weight loss or ulceration. At day 17, the percentages of tumor antigen-specific CD8α+ T cells among PBMC were analyzed using the tetramer staining assay as described previously with peptide-MHC tetramer ([…] AH1) (the NIH Tetramer Core Facility, Atlanta, GA). On day 22, ELISPOT assay was performed with PBMC from the treated mice as described previously.
All animals were cared for following federal, state, and local guidelines. All work performed on animals was in accordance with and approved by the University Committee on Use and Care of Animals (UCUCA) at University of Michigan, Ann Arbor. Female Balb/c mice of age 6-8 weeks (Jackson Laboratories) were inoculated with 1×10^5 CT26 colon cancer cells. When tumor size achieved ˜50 mm^3, indicated drugs or formulations were administrated via the indicated route. Tumor size and survival were monitored every 2 or 3 days. Tumor size was calculated based on equation: volume=length×width^2×0.5. Animals were euthanized when the tumor reached 1.5 cm in diameter or when animals became moribund with severe weight loss or un-healing ulceration. At day 17, the percentages of tumor antigen-specific CD8α+ T cells among PBMC were analyzed using the tetramer staining assay as described previously with peptide-MHC tetramer ([…] AH1) (the NIH Tetramer Core Facility, Atlanta, GA). […]
We also evaluated a subset of the formulations mentioned above in tumor-bearing mice. […]

The mark [3] stands for this setting: 2 doses of 25 ug/dose cdAMP(ps)2 intratumorally on days 10 and 15.

Regarding `O=C1O[C@H]2[C@@H]3OC(=O)c4cc(O)c(O)c(O)c4-c4c(O)c(O)c5oc(=O)c6c(c(O)c(O)c7oc(=O)c4c5c76)-c4c(cc(O)c(O)c4O)C(=O)OC[C@H]3OC(O)[C@@H]2OC(=O)c2cc(O)c(O)c(O)c2-c2c1cc(O)c(O)c2O` (mixture of isomers) [Punicalagin], in series [1], the “IC50 of DNA-induced Type I IFN response” value is “as low as nanomolar level”. In addition, the “tolerability in in-vitro assay (cellular viability)” value in series [2] is given as “well-tolerated”.
On the same counts, the results for `O=C(OC[C@H]1O[C@@H](OC(=O)c2cc(O)c(O)c(OC(=O)c3cc(O)c(O)c(O)c3)c2)[C@H](OC(=O)c2cc(O)c(O)c(OC(=O)c3cc(O)c(O)c(O)c3)c2)[C@@H](OC(=O)c2cc(O)c(O)c(OC(=O)c3cc(O)c(O)c(O)c3)c2)[C@@H]1OC(=O)c1cc(O)c(O)c(OC(=O)c2cc(O)c(O)c(O)c2)c1)c1cc(O)c(O)c(OC(=O)c2cc(O)c(O)c(O)c2)c1` [tannin acid, Tannic acid] are “as low as nanomolar level” and “well-tolerated”.
Regarding cdAMP(ps)2 [free CDN], in the series with CT26 colon cancer cells (setting [3]), the “average tumor growth compared with the untreated group” value is reported as “greatly delayed” and the median survival time is 42 days. In the series with CT26 colon cancer cells (day 22, seven days after the 2nd dose), the “AH1 antigen-specific T cell response (ELISPOT)” value is “significant AH1 antigen-specific T cell response”. In the series on CT26 colon cancer cells (individual tumor growth curves, 5 mice per group), the complete tumor regression is listed as 2 out of 5.

Values taken from patent publication US20250213474A1, “COMPOSITIONS AND METHODS FOR METAL CONTAINING FORMULATIONS CAPABLE OF MODULATING IMMUNE RESPONSE” (The Regents of the University of Michigan, priority 2021, published 2025).
